Test results published in US20200246438A1, “TARGETING GDF6 AND BMP SIGNALING FOR ANTI-MELANOMA THERAPY” (UNIVERSITY OF MASSACHUSETTS, priority 2015, published 2020).
“Also recorded” adds a separate entry of the source.

B1: recombinant GDF6 protein: recombinant GDF6 protein added to culture media; soluble, extracellular BMP ligand (BMP13) (protein, UniProt Q6KF10 336-455, looked up)
Growth/differentiation factor …: TAFASRHGKRHGKKSRLRCSKKPLHVNFKELGWDDWIIAPLEYEAYHCEGVCDFPLRSHLEPTNHAIIQTLMNSMDPGSTPPSCCVPTKLTPISILYIDAGNNVVYKQYEDMVVESCGCR

Key:
SKMEL28 melanoma cells = assay: growth curves by direct cell counting, SKMEL28; type: cell-based, human; details: SKMEL28 cells treated with DMH1 vs control
Protocol: (§1) For growth curves 50,000 live cells were seeded per well in a 6-well tissue culture plate on day 0. The numbers of live cells were calculated every day using an automated cell counter (Nexcelom Bioscience Cellometer Auto T4) following standard procedures. All assays were performed with technical replicates. For clonogenic assays, 3,000 live cells were seeded in a 10 cm tissue culture plate. After 3 weeks, colonies were fixed and stained using bromophenol blue in acetone. ImageJ was used to quantify the number of colonies. In assays with DMH1 treatment, control or DMH1-containing media was replaced every other day. For soft agar assays a 0.5% bottom layer (1:1 with 1% agar and 2×DMEM with 20% FBS) and a 0.3% top layer (1:1 with 0.6% agar and 2×DMEM with 20% FBS) were used. 3,000 live cells per well of a 6-well tissue culture plate were added in the top layer. Media was added initially then replaced every 3 days. After 3 weeks, colonies were stained with nitroblue tetrazolium chloride overnight at 37° C. Once stained, individual wells were photographed, and ImageJ was used to count the number of colonies. All these assays were done in triplicate, and experiments were repeated at least twice. A representative image of each has been shown.

A375 melanoma cells [1] = assay: growth curves by direct cell counting, A375; type: cell-based, human; details: 10 μM DMH1 vs control media
Protocol: as §1

A375 melanoma cells [2] = assay: clonogenic growth / colony formation assay; type: cell-based, human; details: A375-EMPTY vs A375-SMAD1DVD cells treated with DMH1
Protocol: as §1

[3] = test system: BMP signaling (phospho-SMAD1); assay: Western blot of BMP signaling (phospho-SMAD1) in DMH1-treated A375 cells; type: cell-based, human; details: 10 μM DMH1, Western blot
Protocol: Protein extracts were prepared as previously described (S. D. Epstein LB, Hunte-McDonough B, harris C A, Cytokines: A pratical approach (Balkwill F R., ed). 81-93 (1991)). Extracts were separated on 12% SDS-PAGE gels. Blots were probed with primary antibodies (GDF6 (Sigma PRS4691; 1:1000), phospho-SMAD1/5/8 (Cell Signaling 13820; 1:1000), SMAD1 (Cell Signaling 9743; 1:500), Total SMAD1/5/8 (Santa Cruz sc-6031-R; 1:1000), FLAG (Sigma F3165, 1:2000), GAPDH (Abcam 8245; 1:2000)) overnight at 4° C., washed five times in TBS plus 0.1% Tween (TBST) and then incubated with the appropriate HRP-conjugated secondary antibody (Jackson Labs) for 1 hour at room temperature. Membranes were washed five times in TBST and visualized on autoradiography film after incubating with ECL reagent (Supersignal West Pico or Supersignal West Femto; Thermo Scientific).

A375 melanoma cells [4] = assay: A375 mouse xenografts treated with DMH1, tumor volume; type: in vivo; details: 25 mg/kg DMH1 intraperitoneally every other day vs vehicle
Text: All animal protocols were approved by the UMMS Institution Animal Care and Use Committee (A-2016, A-2171). Mice were randomly allocated to individual experimental groups. No blinding was done as animal groups were identified by tagging and cage labeling. Animals were excluded, according to pre-established criteria, if the tumor volume reached>1,000 mm^3; if tumor size or location affected the mobility or general health of animal, the animal was euthanized and excluded from the experiment or the complete experiment was terminated. A375 cells stably expressing an EGFP or GDF6 or SMAD1 shRNA and/or empty vector or GDF6-expressing vector or SMAD1DVD-overexpressing vector were subcutaneously injected into the flanks of 6-8-week-old BALB/c nu/nu female mice (Taconic Farms) to produce orthotopic primary tumor. Primary tumor growth was monitored every 3 days with calipers, and the tumor volume was calculated as described previously (C. Gazin, N. Wajapeyee, S. Gobeil, C. M. Virbasius, M. R. Green, An elaborate pathway required for Ras-mediated epigenetic silencing. Nature 449, 1073-1077 (2007)). For GDF6 knockdown, SMAD1 knockdown and epistasis experiments, […] live cells were injected. For GDF6 overexpression experiments, 1×10^6 live cells were injected. […] The growth of the tumor was monitored as described above. […]

MeWo melanoma cells = assay: proliferation of GDF6-knockdown cells supplemented with recombinant GDF6 protein; type: cell-based, human; details: MeWo cells treated with shRNAs targeting GDF6, recombinant GDF6 protein added to culture media

| Molecule | cell growth (growth curves) (SKMEL28 melanoma cells) | cell growth (growth curves) (A375 melanoma cells [1]) | growth defects caused by DMH1 in SMAD1DVD-expressing cells (colony formation) (A375 melanoma cells [2]) | level of phospho-SMAD1 relative to total SMAD protein [3] | tumor volume / tumor growth (A375 melanoma cells [4]) | proliferation of GDF6-knockdown cells (MeWo melanoma cells) | proliferation of GDF6-knockdown cells (MeWo melanoma cells; listed as recombinant GDF6) |
| --- | --- | --- | --- | --- | --- | --- | --- |
| CC(C)Oc1ccc(-c2cnc3c(-c4ccnc5ccccc45)cnn3c2)cc1 [DMH1] | grew more slowly | grew more slowly; also recorded: inhibits A375 melanoma cell growth | reversed by SMAD1DVD | reduced level of phospho-SMAD1 | smaller tumors arose and grew more slowly; also recorded: decreased tumorigenicity; also recorded: abrogates melanoma growth |  |  |
| B1 |  |  |  |  |  | restored | able to sustain their proliferation |
